Test results: patent US7683090B2, “Treating agent for irritable bowel syndrome” (Astellas Pharma Inc., priority 2004, dated 2010)
Structures can show the parent of a compound that is named as a salt. Where two headings read alike, the source gives them in different places.

Assays:
[1] = system: patients suffering from non-constipated irritable bowel syndrome; conditions: 1 to 8 mg twice daily, cited from earlier work
[2] = system: male and female patients suffering from diarrhea-predominant irritable bowel syndrome (IBS); assay: Clinical study with patients suffering from diarrhea-predominant irritable bowel syndrome (Test Example 1); type: in vivo, human; conditions: for final monthly responder rate in the global assessment of relief of overall IBS symptoms: placebo group 26.9%
Method: Clinical study was carried out under the following condition using male and female patients suffering from diarrhea-predominant irritable bowel syndrome (IBS) as subjects.
Subjects: Patients suffering from diarrhea-predominant IBS in accordance with the Rome II Diagnosis Criteria (D. A. Drossman, et al., pages 351 to 432, ROME II: The functional Gastrointestinal Disorders, Second Edition, Degnon Associates, McLean, 2000).
Test drugs and Administration Methods: Placebo and ramosetron hydrochloride were orally administered for 12 weeks at 0.005 mg or 0.01 mg once daily.
Test Periods: Observation period for one week and treating period for 12 weeks
After transition to the treating period, the starting date for administration of the test drug was defined as the first day. Every week, global assessment of relief of overall IBS symptoms was evaluated taking all symptoms by IBS of the subjects into consideration, comparing with their state in the observation period, and this evaluation was recorded in a patient diary. Incidentally, scores for the global assessment of relief of overall IBS symptoms were as follows.
The subjects where the score was 0 or 1 for two weeks or more during the four weeks were made monthly responders and the monthly responder rate per month was calculated separately for each group of 0.005 mg and 0.01 mg of placebo and ramosetron hydrochloride.
After transition to the treating period, the starting date for administration of the test drug was defined as the first day. Every week, global assessment of relief of abdominal discomfort/pain by the test drug was evaluated with the state in the observation period and was recorded in a patient diary. Incidentally, scores for the global assessment of relief of abdominal discomfort/pain were as follows.
After transition to the treating period, the starting date for administration of the test drug was defined as the first day. Every week, global assessment of improvement of abnormal bowel habits was evaluated comparing with the state in the observation period, and was recorded in a patient diary. Incidentally, scores for the global assessment of improvement of abnormal bowel habits were as follows.
With regard to (1) to (3) for the subsidiary evaluation items, they were also subjected to calculations of monthly responder rate the same as those for the main evaluation items.

[3] = system: patients suffering from irritable bowel syndrome; assay: Former clinical studies, ramosetron hydrochloride administered twice daily to patients suffering from irritable bowel syndrome; type: in vivo, human
Description: The present inventors have carried out intensive investigations for the purpose of creation of novel treating agents for irritable bowel syndrome including non-constipated irritable bowel syndrome such as diarrhea-predominant irritable bowel syndrome and alternating constipation/diarrhea irritable bowel syndrome for which no sufficiently effective treating agent has been available.

[4] = 0.005 mg and 0.01 mg once daily, 12 weeks

Row | SMILES | relief of pain and discomfort, stool consistency, bowel movement frequency and proportion of days with urgency, compared with placebo ([1]; female patients) | relief of pain and discomfort, stool consistency, bowel movement frequency and proportion of days with urgency, compared with placebo ([1]; male patients) | difference in the responder rates between placebo group and ramosetron group: male versus female patients ([2]; 0.005 mg and 0.01 mg once daily) | final monthly responder rate in the global assessment of relief of abdominal discomfort/pain, better than the placebo group [2, 4] | final monthly responder rate in the global assessment of relief of abnormal bowel habits, better than the placebo group [2, 4] | therapeutic effect in patients suffering from diarrhea-predominant irritable bowel syndrome (conclusion) ([2]; 0.005 mg and 0.01 mg, administration once daily) | final monthly responder rate in the global assessment of relief of overall IBS symptoms ([2]; 0.005 mg orally once daily, 12 weeks, p 0.0273 to placebo) | final monthly responder rate in the global assessment of relief of overall IBS symptoms ([2]; 0.01 mg orally once daily, 12 weeks, p 0.0264 to placebo) | monthly responder rate (overall IBS symptoms) in excess of the responder rate in the placebo group ([2]; groups of 0.005 mg and 0.01 mg once daily, 12 weeks) | therapeutic effect as compared with placebo [3]
1 | Cc1[nH]cnc1CN1CCc2c(c3ccccc3n2C)C1=O [alosetron] | significant improvement was noted in female patients | no significant improvement was noted as compared with placebo except stool consistency | – | – | – | – | – | – | – | –
2 | Cn1cc(C(=O)[C@@H]2CCc3[nH]cnc3C2)c2ccccc21 [ramosetron hydrochloride, (−)-(R)-5-[(1-methyl-1H-indol-3-yl)carbonyl]-4,5,6,7-tetrahydro-1H-benzimidazole] | – | – | no difference was noted between male and female patients | more than 10% | more than 10% | effective for both males and females | 42.6% | 43.0% | more than 15% | significant therapeutic effect as compared with placebo was unable to be confirmed
